Molecules are shown by their SMILES.

These results are taken from patent US11234979B2, “Heteroaryl compounds as muscarinic M1 receptor positive allosteric modulators” (SUVEN LIFE SCIENCES LIMITED, priority 2017, dated 2022).

For series [1], the target named is T1, recombinant human Muscarinic M1 receptor (Homo sapiens, UniProt P11229).
T1 construct: expressed in transfected cells
T1 sequence (P11229 1-460): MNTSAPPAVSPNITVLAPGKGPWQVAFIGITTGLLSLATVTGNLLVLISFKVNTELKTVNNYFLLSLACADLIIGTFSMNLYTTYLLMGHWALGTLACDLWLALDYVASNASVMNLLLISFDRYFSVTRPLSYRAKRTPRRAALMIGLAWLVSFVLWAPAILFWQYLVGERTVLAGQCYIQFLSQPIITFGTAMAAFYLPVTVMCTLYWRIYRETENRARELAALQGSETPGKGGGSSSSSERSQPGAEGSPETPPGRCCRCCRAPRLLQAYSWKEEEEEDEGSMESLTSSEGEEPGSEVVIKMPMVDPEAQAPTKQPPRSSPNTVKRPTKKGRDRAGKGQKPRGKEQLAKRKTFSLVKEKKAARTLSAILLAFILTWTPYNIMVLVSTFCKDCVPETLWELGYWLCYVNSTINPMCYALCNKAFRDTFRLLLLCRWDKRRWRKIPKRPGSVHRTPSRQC
In words: Allosteric potency EC50 for Muscarinic M1 receptor, CHO pCRE-Luc reporter assay with EC20 of acetylcholine. In kind it is cell-based. The conditions noted are these: CHO cells, in presence of EC20 of acetylcholine, 4 hours. As for the experimental part:
Determination of Allosteric Potency EC50 Values for Muscarinic M1 Receptor:
A stable CHO cell line expressing recombinant human Muscarinic M1 receptor and pCRE-Luc reporter system was used for cell-based assay. The assay offers a non-radioactive based approach to determine binding of a compound to GPCRs. In this specific assay, the level of intracellular cyclic AMP which is modulated by activation or inhibition of the receptor is measured. The recombinant cells harbor luciferase reporter gene under the control of cAMP response element.
The above cells were grown in 96 well clear bottom white plates in Hams F12 medium containing 10% fetal bovine serum (FBS). Prior to the addition of compounds or standard agonist, cells were serum starved overnight. Increasing concentrations of test compounds were added along with EC20 of acetylcholine in OptiMEM medium to the cells. The incubation was continued at 37° C. in CO2 incubator for 4 hours. Medium was removed and cells were washed with phosphate buffered saline. The cells were lysed and luciferase activity was measured in a Luminometer. Luminescence counts in each concentrations of test item were normalized to the acetylcholine induced maximum response and the data was analyzed using Graphpad software. EC50 values of the compounds were defined as the concentration required in stimulating the luciferase activity by 50% in presence of EC20 of acetylcholine.
(In general: Reporter assays use an easily measured gene product as a stand-in for the process of interest.)

Series [2] in a line: Rodent pharmacokinetic study. Format: in vivo, Male Wistar rats. The conditions noted are these: male, Wistar, rat, plasma; for bioavailability: oral 3 mg/kg vs i.v. 1 mg/kg. As for the experimental part:
Rodent Pharmacokinetic Study
Male Wistar rats (260±50 grams) were used as experimental animals. Animals were housed individually in polypropylene cage. Two days prior to study, male Wistar rats were anesthetized with isoflurane for surgical placement of jugular vein catheter. Rats were randomly divided for oral (3 mg/kg) and intravenous (i.v) (1 mg/kg) dosing (n=3/group) and fasted overnight before oral dosing (p.o.). However, rats allocated to intravenous (i.v.) dosing food and water was provided ad libitum.
At pre-determined point, blood was collected through jugular vein and replenished with an equivalent volume of normal saline. Collected blood was transferred into a labeled eppendorf tube containing 10 μL of heparin as an anticoagulant. Typically blood samples were collected at following time points: 0.08, 0.25, 0.5, 1, 2, 4, 6, 8, and 24 hours post dose. Blood was centrifuged at 4000 rpm for 10 minutes. Plasma was separated and stored frozen at −80° C. until analysis. The concentrations of the test compounds were quantified in plasma by qualified LC-MS/MS method using suitable extraction technique. The test compounds were quantified in the calibration range around 1-1000 ng/mL in plasma. Study samples were analyzed using calibration samples in the batch and quality control samples spread across the batch.
Pharmacokinetic parameters Cmax, AUCt, T1/2, clearance and bioavailability (F) were calculated by non-compartmental model using standard non-compartmental model by using Phoenix WinNonlin 6.0.2 or 6.0.3 version Software package.

The nature of series [3]: Rodent brain penetration study. Format: in vivo, Male Wistar rats. Particulars: male, Wistar, brain and plasma, po; rat, 3 mg/kg, p.o. @ 1.0 hr, brain-plasma ratio; read-out: Single dose Rat Brain Penetration (Cb/Cp). As for the experimental part:
Rodent Brain Penetration Study
Male Wistar rats (260±40 grams) were used as experimental animals. Three animals were housed in each cage. Animals were given water and food ad libitum throughout the experiment and maintained on a 12 hours light/dark cycle.
Brain penetration was determined in discrete manner in rats. One day prior to dosing day, male Wistar rats were acclimatized and randomly grouped according to their weight. At each time point (0.5, 1 and 2 hours) n=3 animals were used.
The test compounds were suitably preformulated and administered orally at (free base equivalent) 3 mg/kg. Blood samples were removed via cardiac puncture by using isoflurane anesthesia. The animals were sacrificed to collect brain tissue. Plasma was separated and brain samples were homogenized and stored frozen at −20° C. until analysis. The concentrations of the test compounds in plasma and brain were determined using LC-MS/MS method.
The test compounds were quantified in plasma and brain homogenate by qualified LC-MS/MS method using suitable extraction technique. The test compounds were quantified in the calibration range of 1-500 ng/mL in plasma and brain homogenate. Study samples were analyzed using calibration samples in the batch and quality control samples spread across the batch.

The test system of a further series is Male Wistar rats. As to the kind of experiment: Object recognition task model. In kind it is in vivo. The conditions noted are these: rat, p.o.; for Exploration time mean ± S.E.M, Familiar object / Exploration time mean ± S.E.M, Novel object: choice trial T2, 24 hours after T1. As for the experimental part:
Object Recognition Task Model
The cognition enhancing properties of compounds of this invention were estimated by using this model.
Male Wistar rats (8-10 weeks old) were used as experimental animals. Four animals were housed in each cage. Animals were kept on 20% food deprivation from a day prior to experimentation. Water was provided ad libitum throughout the experiment. Animals were maintained on a 12 hours light/dark cycle in temperature and humidity controlled room. The experiment was carried out in a circular or square arena made up of acrylic. Rats were habituated to individual arenas for up to 1 hour in the absence of any objects on day 1.
One group of 12 rats received vehicle and another set of animals received compound of the formula (I), before the familiar (T1) and choice (T2) trials. During the familiarization phase, (T1), the rats were placed individually in the arena for 3 minutes, in which two identical objects (a1 and a2) were positioned 10 cm from the wall. 24 hours after T1, trial for long-term memory test was performed. The same rats were placed in the same arena as they were placed in T1 trial. During the choice phase (T2) rats were allowed to explore the arena for 3 minutes in presence of a copy of familiar object (a3) and one novel object (b). During the T1 and T2 trial, explorations of each object (defined as sniffing, licking, chewing or having moving vibrissae whilst directing the nose towards the object at a distance of less than 1 cm) were recorded using stopwatch.
T1 is the total time spent exploring the familiar objects (a1+a2).
T2 is the total time spent exploring the familiar object and novel object (a3+b).
The object recognition test was performed as described by Ennaceur, A., Delacour, J., 1988, A new one-trial test for neurobiological studies of memory in rats˜Behavioural data, Behav. Brain Res., 31, 47-59.

A word on the EC50: it is the midpoint of the concentration-response curve. Usually AUC(0-t) stands for the area under the concentration-time curve up to a stated or last time point. By half-life is commonly meant the time needed for the level to fall by half in the phase considered. The term clearance denotes the volume of plasma or blood freed of the substance per unit of time. Read a high clearance as efficient removal. What is called Cmax is the maximum level reached in the sampled fluid or tissue. Turning to `O=C(N[C@H]1CCCC[C@@H]1O)c1cc(Cc2ccc(Br)c(F)c2)c2cccnn12` [Example 3, N-(cis-1S,2S-2-Hydroxycyclohexyl)-5-(4-bromo-3-fluorobenzyl)-pyrrolo[1,2-b]pyridazine-7-carboxamide], the EC50 in series [1] was determined as 653 nM. In series [2] (iv, i.v. 1 mg/kg), this molecule showed an area under the curve AUC(0-t) of 951 ± 213 ng·h/mL, a half-life of 3.5 ± 1.1 h and a clearance of 17 ± 3 mL/min/kg. Further, the bioavailability in series [2] amounted to 49 ± 27%. In series [2] (oral 3 mg/kg), this molecule gave an exposure AUC(0-t) of 1390 ± 780 ng·h/mL, a maximum concentration (Cmax) of 132 ± 31 ng/mL and a half-life of 3.6 ± 0.2 h. For the same molecule, in series [3], the Kp at 1 h was found to be 1.9 ± 0.27.
As for `O=C(N[C@H]1CCCC[C@@H]1O)c1cc(Cc2ccc(-n3cccn3)cc2)c2cccnn12` [Example 21, N-(cis-1S,2S-2-Hydroxycyclohexyl)-5-(4-pyrazol-1-ylbenzyl)-pyrrolo[1,2-b]pyridazine-7-carboxamide], the EC50 in series [1] worked out at 179 nM. In series [2] (iv, i.v. 1 mg/kg), the AUC(0-t) was found to be 3700 ± 768 ng·h/mL, the half-life is 2.5 ± 0.7 h and the clearance was found to be 4.6 ± 0.9 mL/min/kg. Also, the bioavailability in series [2] is 49 ± 12%. Moreover, in series [2] (oral 3 mg/kg), the AUC(0-t) amounted to 5470 ± 1370 ng·h/mL, the Cmax stood at 687 ± 169 ng/mL and the half-life was 3.4 ± 1.01 h. Besides, the Kp at 1 h in series [3] came out at 0.24 ± 0.02.
As for `COc1ccc(Cc2cc(C(=O)N[C@H]3CCCC[C@@H]3O)n3ncccc23)cc1` [Example 20, N-(cis-1S,2S-2-Hydroxycyclohexyl)-5-(4-methoxybenzyl)-pyrrolo[1,2-b]pyridazine-7-carboxamide], in series [1], the EC50 was 1340 nM. Also, in series [2] (iv, i.v. 1 mg/kg), the AUC(0-t) is 1380 ± 390 ng·h/mL, the half-life was 2.7 ± 0.8 h and the clearance was 12.2 ± 3.1 mL/min/kg. Further, the bioavailability in series [2] stood at 39 ± 3%. In series [2] (oral 3 mg/kg), this molecule showed an AUC(0-t) of 1610 ± 139 ng·h/mL, a Cmax of 402 ± 98 ng/mL and a half-life of 3.4 ± 0.7 h. The Kp at 1 h in series [3] was found to be 1.52 ± 0.15. Also, in the series on Male Wistar rats (1 mg/kg), the Inference result is on record as “Active”; the “Exploration time mean ± S.E.M, Familiar object” value worked out at 10.31 ± 1.07 s; the “Exploration time mean ± S.E.M, Novel object” value worked out at 14.92 ± 1.11 s.
For the molecule `O=C(N[C@H]1CCCC[C@@H]1O)c1cc(Cc2ccc3c(c2)CCO3)c2cccnn12` [Example 4, N-(cis-1S,2S-2-Hydroxycyclohexyl)-5-(2,3-dihydrobenzofuran-5-ylmethyl)-pyrrolo[1,2-b]pyridazine-7-carboxamide], the EC50 in series [1] came out at 836 nM. Also, in series [2] (iv, i.v. 1 mg/kg), the area under the curve AUC(0-t) amounted to 599 ± 58 ng·h/mL, the half-life is 2.4 ± 0.9 h and the clearance amounted to 27 ± 3.4 mL/min/kg. The bioavailability in series [2] is 25 ± 4%. In series [2] (oral 3 mg/kg), this molecule gave an AUC(0-t) of 457 ± 73 ng·h/mL, a Cmax of 105 ± 3 ng/mL and a half-life of 3.9 ± 1.4 h. The Kp at 1 h in series [3] was 1.31 ± 0.11.
Consider `Cn1cc(-c2ccc(Cc3cc(C(=O)N[C@H]4CCCC[C@@H]4O)n4ncccc34)cc2F)cn1` [Example 33, N-(cis-1S,2S-2-Hydroxycyclohexyl)-5-[3-fluoro-4-(1-methyl-1H-pyrazol-4-yl)-benzyl]-pyrrolo[1,2-b]pyridazine-7-carboxamide], for which the half-maximal effective concentration (EC50) in series [1] turned out to be 259 nM. In series [2] (iv, i.v. 1 mg/kg), the AUC(0-t) was 908 ± 164 ng·h/mL, the half-life is 1.3 ± 0.2 h and the clearance was found to be 19 ± 3.8 mL/min/kg. In series [2], the bioavailability was determined as 103 ± 0.7%. In series [2] (oral 3 mg/kg), this molecule had an AUC(0-t) of 2820 ± 20 ng·h/mL, a Cmax of 414 ± 21 ng/mL and a half-life of 2.7 ± 0.1 h. In addition, the Kp at 1 h in series [3] came to 0.2 ± 0.001.
With `Cn1cc(-c2ccc(Cc3cc(C(=O)N[C@H]4CCCC[C@@H]4O)n4ncccc34)c(F)c2)cn1` [Example 34, N-(cis-1S,2S-2-Hydroxycyclohexyl)-5-[2-fluoro-4-(1-methyl-1H-pyrazol-4-yl)-benzyl]-pyrrolo[1,2-b]pyridazine-7-carboxamide], in series [1], the EC50 is 989 nM. Moreover, in series [2] (iv, i.v. 1 mg/kg), the AUC(0-t) worked out at 3230 ± 625 ng·h/mL, the half-life is 3.7 ± 0.3 h and the clearance was found to be 5 ± 0.7 mL/min/kg. Further, the bioavailability in series [2] was 66 ± 3%. In series [2] (oral 3 mg/kg), this molecule showed an AUC(0-t) of 6390 ± 312 ng·h/mL, a Cmax of 793 ± 86 ng/mL and a half-life of 4.4 ± 2.3 h. The Kp at 1 h in series [3] is 0.13 ± 0.02. Also, in the series on Male Wistar rats (0.3 mg/kg), the Inference result is listed as “Active”; the “Exploration time mean ± S.E.M, Familiar object” value was found to be 10.35 ± 1.75 s; the “Exploration time mean ± S.E.M, Novel object” value stood at 15.63 ± 3.23 s.
